The values below come from PubChem BioAssay (NCI).

Test systems include KM12 colon; NCI-H226 lung; NCI-H460 lung; OVCAR-8 ovarian; RPMI-8226 leukemia; SK-MEL-2 melanoma; SK-OV-3 ovarian; SNB-19 CNS; T-47D breast; UO-31 renal.
Experiment in all cases: NCI tumour cell line growth inhibition, 48 h

The structures appear in SMILES notation.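 Following 48 hours of exposure in 96-well plates, responses at five concentrations were used to interpolate endpoints linearly. Definition used: TGI = concentration required for complete inhibition of growth.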

In the case of `N#CCCN(CCC#N)c1ccc(/C=C2\SC(=S)NC2=O)cc1Br`, the TGI with KM12 colon, with NCI-H226 lung, in the test with NCI-H460 lung, in the test on OVCAR-8 ovarian, in the test with RPMI-8226 leukemia and in the test with SK-MEL-2 melanoma was greater than 100 µM throughout. Moreover, the TGI in the test on SK-OV-3 ovarian is greater than 100 µM; in the test with SNB-19 CNS, 56.3 µM; with T-47D breast, greater than 100 µM; with UO-31 renal, greater than 100 µM.

Consider `Cc1cc(/N=C/c2ccc(C#N)cc2)n(-c2ccccc2)n1`, for which the TGI with KM12 colon, with NCI-H226 lung, in the test with NCI-H460 lung, with OVCAR-8 ovarian, with RPMI-8226 leukemia and in the test on SK-MEL-2 melanoma was greater than 100 µM in each case. In addition, the TGI in the test with SK-OV-3 ovarian, with SNB-19 CNS, in the test with T-47D breast and in the test on UO-31 renal was greater than 100 µM in each case.

Regarding `N#CC(=N)c1ncn(-c2ccccc2N)c1N`, the TGI with KM12 colon, in the test on NCI-H226 lung, in the test with NCI-H460 lung, in the test on OVCAR-8 ovarian, in the test on RPMI-8226 leukemia and in the test with SK-MEL-2 melanoma was greater than 100 µM in each case. For the same compound, the TGI in the test with SK-OV-3 ovarian, in the test on SNB-19 CNS, with T-47D breast and with UO-31 renal was greater than 100 µM throughout.

On to `COC(=O)C1=C(C)NC(C)=C([N+](=O)[O-])C1c1cccc(N=O)c1` (stereo not given), for which the TGI was 26.4 µM in the test on KM12 colon; 63.4 µM in the test on NCI-H226 lung; 31.1 µM in the test on NCI-H460 lung; 32.1 µM with OVCAR-8 ovarian; greater than 100 µM in the test on RPMI-8226 leukemia; 33.8 µM in the test with SK-MEL-2 melanoma. Also, the TGI in the test on SK-OV-3 ovarian was 46.6 µM; with SNB-19 CNS, greater than 100 µM; in the test on T-47D breast, 37.3 µM; with UO-31 renal it was 24.8 µM.

With `COc1ccc(N=C2C(=S)N(c3ccc(OC)cc3)/C(=N/S(=O)(=O)c3ccccc3)N2c2ccccc2)cc1`, the TGI with KM12 colon was 34.6 µM; in the test with NCI-H226 lung, 38.7 µM; in the test on NCI-H460 lung it was greater than 73.2 µM; with OVCAR-8 ovarian it was 5.47 µM; in the test on RPMI-8226 leukemia, greater than 100 µM; with SK-MEL-2 melanoma it was 25.5 µM. Moreover, the TGI was greater than 55.4 µM in the test with SK-OV-3 ovarian, greater than 61 µM in the test with SNB-19 CNS, 7.6 µM in the test on T-47D breast and 13.4 µM with UO-31 renal.

For the compound `CC1=C[C@@H](C)C[C@]2(C)CC[C@H](O2)[C@]23CC[C@](C(=O)O)(C[C@H](O2)[C@@H]2O[C@@](C)(CC2=O)[C@@H](O)[C@H]2CC[C@@]4(CCC[C@@H](O4)[C@H](C)C(=O)O[C@H]4C[C@H]([C@]5(O)OCC[C@H](C)[C@@H]5O)O[C@H]4C=C1)O2)O3`, the TGI in the test with KM12 colon, in the test with NCI-H226 lung, with NCI-H460 lung, with OVCAR-8 ovarian, in the test on RPMI-8226 leukemia and in the test on SK-MEL-2 melanoma was greater than 10 µM in each case. The TGI in the test on SK-OV-3 ovarian, in the test with SNB-19 CNS, in the test on T-47D breast and in the test with UO-31 renal was greater than 10 µM each time.

Regarding `COC(=O)C1OC(O[C@H]2CC[C@]3(C)[C@H]4CC=C5[C@@H]6CC(C)(C)CC[C@]6(C(=O)OC6OCC(O)C(O)C6OC6OC(C)C(OC7OCC(OC8OCC(O)C(O)C8O)C(O)C7O)C(O)C6O)[C@H](O)C[C@@]5(C)[C@]4(C)CC[C@H]3C2(C)C)C(O)C(O)C1O` (stereo not given in full), the TGI with KM12 colon is 14.2 µM; in the test on NCI-H226 lung, 6.23 µM; with NCI-H460 lung it was 32.5 µM; in the test with OVCAR-8 ovarian it was 13.2 µM; in the test on RPMI-8226 leukemia, greater than 50.7 µM; with SK-MEL-2 melanoma, 10.1 µM. Also, the TGI with SK-OV-3 ovarian is 28.1 µM; in the test with SNB-19 CNS, 8.09 µM; with T-47D breast, 13.2 µM; in the test with UO-31 renal, 3.56 µM.

Take `COc1cc(C=C2C(=O)NC(=S)NC2=O)cc(OC)c1OC`: the TGI with KM12 colon, in the test on NCI-H226 lung, in the test with NCI-H460 lung, with OVCAR-8 ovarian, with RPMI-8226 leukemia and in the test with SK-MEL-2 melanoma was greater than 100 µM in each case. In addition, the TGI in the test with SK-OV-3 ovarian, with SNB-19 CNS, in the test with T-47D breast and with UO-31 renal was greater than 100 µM in each case.

Consider `O=C1CC(Sc2nc3ccc(I)cc3c(=O)n2Cc2ccccc2)C(=O)NN1` (stereo not given), for which the TGI stood at 38.8 µM with KM12 colon; 25.2 µM with NCI-H226 lung; 57.2 µM in the test on NCI-H460 lung; 28.4 µM with OVCAR-8 ovarian; 45.5 µM with RPMI-8226 leukemia; 31.8 µM with SK-MEL-2 melanoma. Besides, the TGI in the test on SK-OV-3 ovarian is 29.7 µM; with SNB-19 CNS, 39.1 µM; in the test with T-47D breast, 34.3 µM; with UO-31 renal, 1.97 µM.

For the compound `Cn1ccnc1Sc1ccc(C=Nc2ccc3nc(SCC(=O)NC4CCCCC4)sc3c2)cc1[N+](=O)[O-]`, the TGI was greater than 100 µM in the test with KM12 colon; greater than 100 µM in the test on NCI-H226 lung; greater than 100 µM in the test with NCI-H460 lung; greater than 100 µM in the test with OVCAR-8 ovarian; greater than 100 µM in the test on RPMI-8226 leukemia; 54.1 µM with SK-MEL-2 melanoma. Moreover, the TGI is 58.4 µM in the test with SK-OV-3 ovarian, 55.9 µM with SNB-19 CNS, greater than 100 µM in the test with T-47D breast and greater than 100 µM with UO-31 renal.

Take `COC(=O)c1cc(C)ccc1CC(Cc1ccc(C)cc1)C(=O)OC` (stereo not given): the TGI was greater than 100 µM with KM12 colon; greater than 100 µM in the test on NCI-H226 lung; greater than 100 µM in the test with NCI-H460 lung; greater than 100 µM with OVCAR-8 ovarian; greater than 100 µM with RPMI-8226 leukemia; greater than 90.3 µM with SK-MEL-2 melanoma. For the same compound, the TGI is 67.2 µM with SK-OV-3 ovarian, greater than 100 µM with SNB-19 CNS, greater than 100 µM with T-47D breast and greater than 100 µM with UO-31 renal.

As to `O=C(c1ccccc1)N1C(=S)N=C(Nc2ccccc2)C1=Nc1ccccc1`, the TGI with KM12 colon, in the test with NCI-H226 lung, in the test with NCI-H460 lung, in the test on OVCAR-8 ovarian, with RPMI-8226 leukemia and in the test with SK-MEL-2 melanoma was greater than 100 µM each time. In addition, the TGI in the test on SK-OV-3 ovarian, in the test on SNB-19 CNS, with T-47D breast and with UO-31 renal was greater than 100 µM in each case.

As for `c1ccc(C2=Nn3c(CCCCCCCCc4nnc5n4N=C(c4ccccc4)CS5)nnc3SC2)cc1`, the TGI is greater than 100 µM with KM12 colon; greater than 100 µM in the test with NCI-H226 lung; greater than 100 µM with NCI-H460 lung; greater than 100 µM in the test with OVCAR-8 ovarian; greater than 100 µM in the test with RPMI-8226 leukemia; greater than 88.7 µM with SK-MEL-2 melanoma. Besides, the TGI is 85.6 µM in the test with SK-OV-3 ovarian, 43.3 µM in the test with SNB-19 CNS, greater than 100 µM in the test with T-47D breast and greater than 100 µM with UO-31 renal.
